# Legend:
# I2286T mPIEZO1 = biological target: T1, I2286T mPIEZO1 (Mus musculus, UniProt E2JF22, I2286T); assay: Intracellular Ca2+ measurement (fura-2), T-REx-293 cells stably transfected; format: cell-based
# T1 construct: expressed in transfected cells
# Method: T-REx-293 cell line was transfected with pcDNA4/TO-mPIEZO1 constructs using Lipofectamine 2000 (Invitrogen) as above and treated with 200 μg.mL^−1 zeocin (InvivoGen) to select for stably transfected cells. At least two strongly expressing clonal cell lines were established and tested for each variant. All cell lines were maintained in Dulbecco’s Modified Eagle’s medium (Invitrogen) supplemented with 10% heat-inactivated fetal calf serum (Sigma-Aldrich), penicillin (50 units.mL^−1) and streptomycin (0.5 mg.mL^−1) (Sigma-Aldrich) and grown at 37°C in a humidified 5% CO2 incubator.
# For intracellular Ca^2+ assays, cells were plated at 80–90% confluence in 96-well plates 24 h prior to recordings (6–8 × 10^4 cells per well). […] Cells were washed with SBS and incubated at room temperature for 20 min prior to recordings. Equal volumes of 2x concentrated compounds were injected to test for acute channel activation. Pre-incubation with compounds occurred during the 20 min prior to recordings. To expose cell membranes to hypo-osmolality, an equal volume of hypotonic SBS (containing only 35 mM NaCl) was injected onto the cells. Measurements were made on a fluorescence plate reader (Flexstation III, Molecular Devices) at room temperature (21 ± 2°C). Fura-2 was excited at 340 nm and 380 nm and emitted light collected at 510 nm, with measurements shown as the change in fluorescence (F) ratio (ΔF340/380).
# KC41 (Dooku1) was prepared as described.[28] All purchased chemicals and solvents were used without further purification unless otherwise stated. All compounds were at least 95% pure by 1H NMR. 1H Nuclear Magnetic Resonance spectra were recorded at 500 MHz using a Bruker DRX 500 instrument or at 400 MHz using a Bruker DPX 400. 1H spectra are referenced based on the residual proton in the solvent (e.g., the CHCl3, 0.01% in 99.99% CDCl3). Coupling constants (J) are reported to the nearest 0.1 Hz. 13C NMR spectra were recorded at 125 MHz on 500 MHz spectrometers or at 100 MHz on 400 MHz spectrometers. LC-MS was performed on a Bruker Daltronics running a gradient of increasing acetonitrile (5–95%) in H2O both containing 0.1% formic acid at 1 mL.min^−1, on a short path C18 reverse phase column, detecting compounds with both a diode array detector and a Bruker mass spectrum analyser. HRMS was performed on a Bruker Daltonics micrOTOF using positive electrospray ionisation (ES+). Automated column chromatograph was carried out using a Biotage Isolera Four, using either Sfär Silica D or KP-Silica cartridges. HPLC was performed on an Agilent 1290 Infinity Series equipped with a UV detector and Hyperprep C18 reverse phase column. Key to NMR abbreviations: s (singlet), br s (broad singlet) d (doublet), dd (doublet of doublets), ddd (doublet of doublets of doublets), t (triplet), dt (doublet of triples), q (quartet), m (multiplet), ap. t (apparent triplet). For experiments, Yoda1 and its analogues were prepared as 10 mM stock solutions in 100% dimethyl sulfoxide (DMSO) before serial dilution in DMSO and final dilution in aqueous solution. Cells were exposed to 0.1% DMSO for all concentrations of the compounds from 0 to 10 μM.
# G1994D mPIEZO1 = biological target: T2, G1994D mPIEZO1 (Mus musculus, UniProt E2JF22, G1994D); assay: Long substance exposure (20 min exposure) Ca2+ assay; format: cell-based
# T2 construct: expressed in transfected cells
# Excerpt: Supplement mmc2.xlsx, sheet "Figure 5e" | column: Mean normalise fluorescence
# T2 sequence (E2JF22 whole entry G1994D): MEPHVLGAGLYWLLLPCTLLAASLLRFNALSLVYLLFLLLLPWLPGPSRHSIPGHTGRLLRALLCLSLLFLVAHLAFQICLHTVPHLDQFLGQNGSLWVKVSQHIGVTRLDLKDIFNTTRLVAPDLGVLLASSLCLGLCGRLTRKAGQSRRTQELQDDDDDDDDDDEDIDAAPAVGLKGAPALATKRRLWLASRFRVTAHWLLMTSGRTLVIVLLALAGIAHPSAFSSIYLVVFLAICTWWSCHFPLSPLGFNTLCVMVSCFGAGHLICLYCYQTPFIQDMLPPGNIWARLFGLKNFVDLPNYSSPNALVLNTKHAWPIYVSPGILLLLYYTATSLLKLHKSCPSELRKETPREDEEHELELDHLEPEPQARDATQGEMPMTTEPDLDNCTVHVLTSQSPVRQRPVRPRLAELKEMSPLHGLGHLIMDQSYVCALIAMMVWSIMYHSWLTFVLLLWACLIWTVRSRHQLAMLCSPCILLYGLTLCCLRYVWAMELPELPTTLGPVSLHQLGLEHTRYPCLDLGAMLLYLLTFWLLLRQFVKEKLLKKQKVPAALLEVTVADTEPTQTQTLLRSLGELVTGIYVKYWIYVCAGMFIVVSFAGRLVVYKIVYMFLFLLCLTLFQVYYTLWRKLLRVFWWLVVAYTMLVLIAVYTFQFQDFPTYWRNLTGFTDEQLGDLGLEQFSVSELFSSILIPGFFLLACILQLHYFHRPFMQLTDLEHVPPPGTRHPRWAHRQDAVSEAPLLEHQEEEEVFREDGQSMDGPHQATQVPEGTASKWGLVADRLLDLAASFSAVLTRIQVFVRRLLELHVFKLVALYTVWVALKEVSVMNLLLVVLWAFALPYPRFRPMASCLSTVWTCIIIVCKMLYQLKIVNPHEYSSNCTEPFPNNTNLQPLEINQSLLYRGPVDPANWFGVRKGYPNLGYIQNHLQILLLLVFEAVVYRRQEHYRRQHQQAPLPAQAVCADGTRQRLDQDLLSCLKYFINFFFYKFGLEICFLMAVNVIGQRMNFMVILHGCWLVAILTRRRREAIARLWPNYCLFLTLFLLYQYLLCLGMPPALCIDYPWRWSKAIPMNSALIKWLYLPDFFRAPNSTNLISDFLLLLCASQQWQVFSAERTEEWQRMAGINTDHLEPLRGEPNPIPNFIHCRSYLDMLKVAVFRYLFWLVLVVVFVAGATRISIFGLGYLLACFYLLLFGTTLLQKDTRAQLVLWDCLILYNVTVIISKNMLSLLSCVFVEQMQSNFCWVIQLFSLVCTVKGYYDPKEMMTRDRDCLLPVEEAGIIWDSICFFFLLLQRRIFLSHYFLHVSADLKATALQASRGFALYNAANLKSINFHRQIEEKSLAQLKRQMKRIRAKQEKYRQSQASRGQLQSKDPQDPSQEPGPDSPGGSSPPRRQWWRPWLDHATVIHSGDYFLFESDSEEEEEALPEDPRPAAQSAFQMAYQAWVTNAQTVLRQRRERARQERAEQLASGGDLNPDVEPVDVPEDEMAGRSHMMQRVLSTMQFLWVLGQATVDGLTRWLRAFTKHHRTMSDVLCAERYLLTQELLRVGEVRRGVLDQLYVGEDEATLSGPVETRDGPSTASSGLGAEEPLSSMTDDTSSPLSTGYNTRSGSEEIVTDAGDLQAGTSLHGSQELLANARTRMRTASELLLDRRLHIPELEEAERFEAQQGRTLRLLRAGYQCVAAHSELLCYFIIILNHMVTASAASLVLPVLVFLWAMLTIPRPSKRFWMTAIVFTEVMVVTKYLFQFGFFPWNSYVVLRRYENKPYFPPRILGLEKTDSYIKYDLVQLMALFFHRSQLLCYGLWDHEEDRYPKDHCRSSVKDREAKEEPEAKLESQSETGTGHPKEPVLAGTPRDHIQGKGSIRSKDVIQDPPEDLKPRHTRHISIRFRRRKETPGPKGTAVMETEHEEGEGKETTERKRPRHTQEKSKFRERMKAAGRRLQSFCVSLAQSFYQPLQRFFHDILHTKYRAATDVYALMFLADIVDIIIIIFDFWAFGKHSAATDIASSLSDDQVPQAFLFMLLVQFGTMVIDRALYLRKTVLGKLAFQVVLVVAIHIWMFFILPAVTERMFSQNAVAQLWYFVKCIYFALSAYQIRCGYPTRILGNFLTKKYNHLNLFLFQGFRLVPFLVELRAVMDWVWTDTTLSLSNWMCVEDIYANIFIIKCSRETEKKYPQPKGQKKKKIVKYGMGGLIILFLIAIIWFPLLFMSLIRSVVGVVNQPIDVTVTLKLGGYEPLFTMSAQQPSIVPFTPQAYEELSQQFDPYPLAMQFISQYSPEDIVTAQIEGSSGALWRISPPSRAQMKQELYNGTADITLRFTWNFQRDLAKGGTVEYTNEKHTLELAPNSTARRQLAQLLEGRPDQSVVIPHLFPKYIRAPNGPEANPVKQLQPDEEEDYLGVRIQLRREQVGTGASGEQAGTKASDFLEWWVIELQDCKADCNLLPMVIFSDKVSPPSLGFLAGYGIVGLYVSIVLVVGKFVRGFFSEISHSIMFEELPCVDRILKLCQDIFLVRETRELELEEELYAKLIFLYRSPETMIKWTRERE
# T1 sequence (E2JF22 whole entry I2286T): as the sequence (E2JF22 whole entry G1994D) above, with D1994G, I2286T counted along it
compound,measurement,setting,value
Clc1cccc(Cl)c1CSc1nnc(-c2cnccn2)s1 [Yoda1],Mean (ΔFratio),"I2286T mPIEZO1; 0.3 µM, time 0 s",0.00284
same,Mean (ΔFratio),"I2286T mPIEZO1; 0.3 µM, time 5 s",-0.01214
same,Mean (ΔFratio),"I2286T mPIEZO1; 0.3 µM, time 10 s",-0.00475
same,Mean (ΔFratio),"I2286T mPIEZO1; 0.3 µM, time 15 s",0.0078
same,Mean (ΔFratio),"I2286T mPIEZO1; 0.3 µM, time 20 s",0.0053
same,Mean (ΔFratio),"I2286T mPIEZO1; 0.3 µM, time 25 s",9.46E-04
same,Mean (ΔFratio),"I2286T mPIEZO1; 0.3 µM, time 30 s",-0.3226
same,Mean (ΔFratio),"I2286T mPIEZO1; 0.3 µM, time 35 s",0.06275
same,Mean (ΔFratio),"I2286T mPIEZO1; 0.3 µM, time 40 s",0.07886
same,Mean (ΔFratio),"I2286T mPIEZO1; 0.3 µM, time 45 s",0.1026
same,Mean (ΔFratio),"I2286T mPIEZO1; 0.3 µM, time 50 s",0.1196
same,Mean (ΔFratio),"I2286T mPIEZO1; 0.3 µM, time 55 s",0.1055
same,Mean (ΔFratio),"I2286T mPIEZO1; 0.3 µM, time 60 s",0.1268
same,Mean (ΔFratio),"I2286T mPIEZO1; 0.3 µM, time 65 s",0.1277
same,Mean (ΔFratio),"I2286T mPIEZO1; 0.3 µM, time 70 s",0.1132
same,Mean (ΔFratio),"I2286T mPIEZO1; 0.3 µM, time 75 s",0.108
same,Mean (ΔFratio),"I2286T mPIEZO1; 0.3 µM, time 80 s",0.1196
same,Mean (ΔFratio),"I2286T mPIEZO1; 0.3 µM, time 85 s",0.1097
same,Mean (ΔFratio),"I2286T mPIEZO1; 0.3 µM, time 90 s",0.1266
same,Mean (ΔFratio),"I2286T mPIEZO1; 0.3 µM, time 95 s",0.09696
same,Mean (ΔFratio),"I2286T mPIEZO1; 0.3 µM, time 100 s",0.1131
same,Mean (ΔFratio),"I2286T mPIEZO1; 0.3 µM, time 105 s",0.1125
same,Mean (ΔFratio),"I2286T mPIEZO1; 0.3 µM, time 110 s",0.1236
same,Mean (ΔFratio),"I2286T mPIEZO1; 0.3 µM, time 115 s",0.1032
same,Mean (ΔFratio),"I2286T mPIEZO1; 0.3 µM, time 120 s",0.1051
same,Mean (ΔFratio),"I2286T mPIEZO1; 0.3 µM, time 125 s",0.1128
same,Mean (ΔFratio),"I2286T mPIEZO1; 0.3 µM, time 130 s",0.1149
same,Mean (ΔFratio),"I2286T mPIEZO1; 3 µM, time 0 s",0.00514
same,Mean (ΔFratio),"I2286T mPIEZO1; 3 µM, time 5 s",-0.00971
same,Mean (ΔFratio),"I2286T mPIEZO1; 3 µM, time 10 s",-0.01128
same,Mean (ΔFratio),"I2286T mPIEZO1; 3 µM, time 15 s",-0.00374
same,Mean (ΔFratio),"I2286T mPIEZO1; 3 µM, time 20 s",0.00352
same,Mean (ΔFratio),"I2286T mPIEZO1; 3 µM, time 25 s",0.01607
same,Mean (ΔFratio),"I2286T mPIEZO1; 3 µM, time 30 s",-0.3514
same,Mean (ΔFratio),"I2286T mPIEZO1; 3 µM, time 35 s",-7.87E-04
same,Mean (ΔFratio),"I2286T mPIEZO1; 3 µM, time 40 s",0.4454
same,Mean (ΔFratio),"I2286T mPIEZO1; 3 µM, time 45 s",0.684
same,Mean (ΔFratio),"I2286T mPIEZO1; 3 µM, time 50 s",0.8254
same,Mean (ΔFratio),"I2286T mPIEZO1; 3 µM, time 55 s",0.9146
same,Mean (ΔFratio),"I2286T mPIEZO1; 3 µM, time 60 s",1.017
same,Mean (ΔFratio),"I2286T mPIEZO1; 3 µM, time 65 s",0.992
same,Mean (ΔFratio),"I2286T mPIEZO1; 3 µM, time 70 s",1.046
same,Mean (ΔFratio),"I2286T mPIEZO1; 3 µM, time 75 s",1.071
same,Mean (ΔFratio),"I2286T mPIEZO1; 3 µM, time 80 s",1.067
same,Mean (ΔFratio),"I2286T mPIEZO1; 3 µM, time 85 s",1.06
same,Mean (ΔFratio),"I2286T mPIEZO1; 3 µM, time 90 s",1.0819
same,Mean (ΔFratio),"I2286T mPIEZO1; 3 µM, time 95 s",1.076
same,Mean (ΔFratio),"I2286T mPIEZO1; 3 µM, time 100 s",1.0617
same,Mean (ΔFratio),"I2286T mPIEZO1; 3 µM, time 105 s",1.0398
same,Mean (ΔFratio),"I2286T mPIEZO1; 3 µM, time 110 s",1.005
same,Mean (ΔFratio),"I2286T mPIEZO1; 3 µM, time 115 s",1.038
same,Mean (ΔFratio),"I2286T mPIEZO1; 3 µM, time 120 s",1.008
same,Mean (ΔFratio),"I2286T mPIEZO1; 3 µM, time 125 s",0.9978
same,Mean (ΔFratio),"I2286T mPIEZO1; 3 µM, time 130 s",0.9846
same,Mean normalise fluorescence,"I2286T mPIEZO1; 1.5 min exposure, 0.03 µM",-0.00469
same,Mean normalise fluorescence,"I2286T mPIEZO1; 1.5 min exposure, 0.1 µM",-0.00217
same,Mean normalise fluorescence,"I2286T mPIEZO1; 1.5 min exposure, 0.3 µM",0.03506
same,Mean normalise fluorescence,"I2286T mPIEZO1; 1.5 min exposure, 1 µM",0.1805
same,Mean normalise fluorescence,"I2286T mPIEZO1; 1.5 min exposure, 3 µM",0.4613
same,Mean normalise fluorescence,"I2286T mPIEZO1; 1.5 min exposure, 5 µM",0.7197
same,Mean normalise fluorescence,"I2286T mPIEZO1; 1.5 min exposure, 10 µM",1
same,Mean normalise fluorescence,"I2286T mPIEZO1; 20 min exposure, normalized to 3 μM, 0.03 µM",0.09646
same,Mean normalise fluorescence,"I2286T mPIEZO1; 20 min exposure, normalized to 3 μM, 0.1 µM",0.04298
same,Mean normalise fluorescence,"I2286T mPIEZO1; 20 min exposure, normalized to 3 μM, 0.3 µM",0.2627
same,Mean normalise fluorescence,"I2286T mPIEZO1; 20 min exposure, normalized to 3 μM, 1 µM",0.9872
same,Mean normalise fluorescence,"I2286T mPIEZO1; 20 min exposure, normalized to 3 μM, 3 µM",1
same,Mean normalise fluorescence,"I2286T mPIEZO1; 20 min exposure, normalized to 3 μM, 10 µM",0.9221
same,EC50,"I2286T mPIEZO1; long (20 min) exposure, normalized to 3 μM Yoda1",410 nM
same,Effect on mPIEZO1 channel function,I2286T mPIEZO1; versus WT,loss of MA: LOF; reduced Y1 potency
same,Mean normalise fluorescence (Figure 5e),G1994D mPIEZO1; Yoda1 concentration 0.03 µM,0.2099
same,Mean normalise fluorescence (Figure 5e),G1994D mPIEZO1; Yoda1 concentration 0.1 µM,0.1039
same,Mean normalise fluorescence (Figure 5e),G1994D mPIEZO1; Yoda1 concentration 0.3 µM,0.5452
same,Mean normalise fluorescence (Figure 5e),G1994D mPIEZO1; Yoda1 concentration 1 µM,1.026
same,Mean normalise fluorescence (Figure 5e),G1994D mPIEZO1; Yoda1 concentration 3 µM,1
same,Mean normalise fluorescence (Figure 5e),G1994D mPIEZO1; Yoda1 concentration 10 µM,1.103

# — article PMC12337661, “PIEZO1 mechanical insensitivity in generalized lymphatic dysplasia with the potential for pharmacological rescue” (iScience, 2025)
